Test results: patent US12617773B2, “Azetidin-3-ylmethanol derivatives as CCR6 receptor modulators” (Idorsia Pharmaceuticals Ltd, priority 2020, dated 2026)

target: T1, human CCR6 (Homo sapiens, UniProt P51684); experiment: FLIPR assay (inhibition of CCL20-induced calcium signal); assay type: cell-based; settings: HEK-293 cells expressing human CCR6; mean values where determined several times; read-out: FLIPR IC50
T1 construct: expressed in transfected cells; host or cells: HEK-293
T1 sequence (P51684 1-374): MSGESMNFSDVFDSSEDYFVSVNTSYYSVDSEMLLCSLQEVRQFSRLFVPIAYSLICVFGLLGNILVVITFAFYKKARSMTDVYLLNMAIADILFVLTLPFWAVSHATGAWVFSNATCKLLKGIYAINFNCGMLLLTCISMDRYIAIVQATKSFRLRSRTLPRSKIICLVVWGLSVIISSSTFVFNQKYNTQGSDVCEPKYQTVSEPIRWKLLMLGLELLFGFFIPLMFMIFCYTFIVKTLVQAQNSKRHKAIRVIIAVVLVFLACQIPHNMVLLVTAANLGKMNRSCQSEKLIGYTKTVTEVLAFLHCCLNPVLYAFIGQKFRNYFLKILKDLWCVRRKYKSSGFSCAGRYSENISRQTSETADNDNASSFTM
Summary of the method: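 IC50 values come from baseline-corrected peak calcium fluorescence after agonist. The agonist was CCL20 at 10 nM final, added to engineered human CCR6 HEK-293 cells following a 30-min, room-temperature, dark preincubation with serially diluted compound. Readings were taken in a fluorometric imaging plate reader.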

IC50 [nM] | SMILES
112 | CC(C)c1ccc([C@](O)(c2cncc(-c3noc(C4CCN(C(=O)C5COC5)CC4)n3)c2)C2(C)CN(C)C2)cc1 [Example 476]
33.9 | COCC(=O)N1CCC(c2nc(-c3cncc([C@@](O)(c4ccc(C(C)C)cc4)C4(C)CN(C)C4)c3)no2)(C(C)C)CC1 [Example 477]
112 | CC(C)c1ccc([C@](O)(c2cncc(-c3noc(C4CCC(=O)N(C)C4)n3)c2)C2(C)CN(C)C2)cc1 (stereo partly drawn) [Example 479, 5-(3-{5-[(R)-(1,3-Dimethyl-azetidin-3-yl)-hydroxy-(4-isopropyl-phenyl)-methyl]-pyridin-3-yl}-[1,2,4]oxadiazol-5-yl)-1-methyl-piperidin-2-one]
128 | CC(C)c1ccc([C@](O)(c2cncc(-c3noc(C4(C)CCC(=O)NC4)n3)c2)C2(C)CN(C)C2)cc1 (some centres unmarked) [Example 480]
184 | CC(C)c1ccc([C@](O)(c2cncc(-c3noc(C4CCC(=O)NC4)n3)c2)C2(C)CN(C)C2)cc1 (some centres unmarked) [Example 481]
92.3 | CC(C)c1ccc([C@](O)(c2cncc(-c3noc(C4(C)CNC(=O)C4)n3)c2)C2(C)CN(C)C2)cc1 (some centres unmarked) [Example 482]
73.1 | CC(C)c1ccc([C@](O)(c2cncc(-c3noc(CN4C(=O)CC(C)(C)C4=O)n3)c2)C2(C)CN(C)C2)cc1 [Example 483]
593 | CC(C)c1ccc([C@](O)(c2cncc(-c3noc(CN4CC(=O)NC4=O)n3)c2)C2(C)CN(C)C2)cc1 [Example 484]
259 | CC(C)c1ccc([C@](O)(c2cncc(-c3noc(CN4CCCC4=O)n3)c2)C2(C)CN(C)C2)cc1 [Example 485]
287 | CC(C)c1ccc([C@](O)(c2cncc(-c3noc(CN4C(=O)CNC4=O)n3)c2)C2(C)CN(C)C2)cc1 [Example 486]
248 | CC(C)c1ccc([C@](O)(c2cncc(-c3noc(CN4C(=O)CN(C)C4=O)n3)c2)C2(C)CN(C)C2)cc1 [Example 487]
382 | CC(C)c1ccc([C@](O)(c2cncc(-c3noc(CN4CC(=O)N(C)C4=O)n3)c2)C2(C)CN(C)C2)cc1 [Example 488]
135 | CC(C)c1ccc([C@](O)(c2cncc(-c3noc(CN4CCOC4=O)n3)c2)C2(C)CN(C)C2)cc1 [Example 489]
143 | CC(C)c1ccc([C@](O)(c2cncc(-c3noc(CN4CCN(C5CC5)C4=O)n3)c2)C2(C)CN(C)C2)cc1 [Example 490]
172 | CC(C)c1ccc([C@](O)(c2cncc(-c3noc(CN4C(=O)CCC4=O)n3)c2)C2(C)CN(C)C2)cc1 [Example 491]
267 | CC(C)c1ccc([C@](O)(c2cncc(-c3noc(CN4CCN(C)C4=O)n3)c2)C2(C)CN(C)C2)cc1 [Example 492]
185 | CC(C)c1ccc([C@](O)(c2cncc(-c3noc(CN4CCNC4=O)n3)c2)C2(C)CN(C)C2)cc1 [Example 493]
240 | CC(C)c1ccc([C@](O)(c2cncc(-c3noc(C(C)(O)CO)n3)c2)C2(C)CN(C)C2)cc1 (some centres unmarked) [Example 494]
20.9 | CC(C)c1ccc([C@](O)(c2cncc(-c3noc(-c4cccnc4)n3)c2)C2(C)CN(C)C2)cc1 [Example 495]
69.7 | CC(=O)N1CCC(Cc2nc(-c3cncc([C@@](O)(c4ccc(C(C)C)cc4)C4(C)CN(C)C4)c3)no2)CC1 [Example 496]
74.3 | CC(C)c1ccc([C@](O)(c2cncc(-c3noc(CC#N)n3)c2)C2(C)CN(C)C2)cc1 [Example 497]
234 | CC(=O)N1CCC(O)(c2nc(-c3cncc([C@@](O)(c4ccc(C(C)C)cc4)C4(C)CN(C)C4)c3)no2)CC1 [Example 498, 1-[4-(3-{5-[(R)-(1,3-Dimethyl-azetidin-3-yl)-hydroxy-(4-isopropyl-phenyl)-methyl]-pyridin-3-yl}-[1,2,4]oxadiazol-5-yl)-4-hydroxy-piperidin-1-yl]-ethanone]

IC50 [nM] | SMILES
53.8 | CC(C)c1ccc([C@](O)(c2cncc(-c3noc(CCC#N)n3)c2)C2(C)CN(C)C2)cc1 [Example 499, 3-(3-{5-[(R)-(1,3-Dimethyl-azetidin-3-yl)-hydroxy-(4-isopropyl-phenyl)-methyl]-pyridin-3-yl}-[1,2,4]oxadiazol-5-yl)-propionitrile]
149 | COC1CN(C(C)=O)CCC1c1nc(-c2cncc([C@@](O)(c3ccc(C(C)C)cc3)C3(C)CN(C)C3)c2)no1 (stereo partly drawn) [Example 500, 1-[4-(3-{5-[(R)-(1,3-Dimethyl-azetidin-3-yl)-hydroxy-(4-isopropyl-phenyl)-methyl]-pyridin-3-yl}-[1,2,4]oxadiazol-5-yl)-3-methoxy-piperidin-1-yl]-ethanone]
108 | CC(=O)N1CCC[C@@H](c2nc(-c3cncc([C@@](O)(c4ccc(C(C)C)cc4)C4(C)CN(C)C4)c3)no2)C1 [Example 501, 1-[(R)-3-(3-{5-[(R)-(1,3-Dimethyl-azetidin-3-yl)-hydroxy-(4-isopropyl-phenyl)-methyl]-pyridin-3-yl}-[1,2,4]oxadiazol-5-yl)-piperidin-1-yl]-ethanone]
65.8 | CC(C)c1ccc([C@](O)(c2cncc(-c3noc(C4(O)CCOCC4)n3)c2)C2(C)CN(C)C2)cc1 [Example 502]
51.1 | CC(C)c1ccc([C@](O)(c2cncc(-c3noc(C45CC(CO)(C4)C5)n3)c2)C2(C)CN(C)C2)cc1 [Example 503]
143 | CC(C)c1ccc([C@](O)(c2cncc(-c3noc(C4CC(=O)N(C)C(=O)C4)n3)c2)C2(C)CN(C)C2)cc1 [Example 504]
35.9 | CC(C)c1ccc([C@](O)(c2cncc(-c3noc(C(F)(F)CO)n3)c2)C2(C)CN(C)C2)cc1 [Example 505]
24 | COc1cccc(-c2nc(-c3cncc([C@@](O)(c4ccc(C(C)C)cc4)C4(C)CN(C)C4)c3)no2)c1 [Example 506]
32.7 | CC(C)c1ccc([C@](O)(c2cncc(-c3noc(C(C)C)n3)c2)C2(C)CN(C)C2)cc1 [Example 507]
49.1 | Cc1cc(-c2nc(-c3cncc([C@@](O)(c4ccc(C(C)C)cc4)C4(C)CN(C)C4)c3)no2)ncn1 [Example 508]
142 | CC(=O)N1CC[C@@H](Cc2nc(-c3cncc([C@@](O)(c4ccc(C(C)C)cc4)C4(C)CN(C)C4)c3)no2)C1 [Example 514]
63.5 | Cc1nc(-c2cncc([C@@](O)(c3ccc(C(C)C)cc3)C3(C)CN(C)C3)c2)no1 [Example 517, (R)-(1,3-Dimethyl-azetidin-3-yl)-(4-isopropyl-phenyl)-[5-(5-methyl-[1,2,4]oxadiazol-3-yl)-pyridin-3-yl]-methanol]
41.2 | CC(C)c1ccc([C@](O)(c2cncc(-c3noc(C(C)(F)F)n3)c2)C2(C)CN(C)C2)cc1 [Example 518, (R)-{5-[5-(1,1-Difluoro-ethyl)-[1,2,4]oxadiazol-3-yl]-pyridin-3-yl}-(1,3-dimethyl-azetidin-3-yl)-(4-isopropyl-phenyl)-methanol]
168 | CC(C)c1ccc([C@](O)(c2cncc(-c3nc(C4(O)CCOCC4)no3)c2)C2(C)CN(C)C2)cc1 [Example 519, 4-(5-{5-[(R)-(1,3-Dimethyl-azetidin-3-yl)-hydroxy-(4-isopropyl-phenyl)-methyl]-pyridin-3-yl}-[1,2,4]oxadiazol-3-yl)-tetrahydro-pyran-4-ol]
62.6 | CC(C)c1ccc([C@](O)(c2cncc(-c3nc(COC(C)(C)C)no3)c2)C2(C)CN(C)C2)cc1 [Example 520]
153 | CC(C)c1ccc([C@](O)(c2cncc(-c3nc(CO)no3)c2)C2(C)CN(C)C2)cc1 [Example 521]
119 | CC(=O)N1CCN(c2noc(-c3cncc([C@@](O)(c4ccc(C(C)C)cc4)C4(C)CN(C)C4)c3)n2)CC1 [Example 522]
297 | CC(=O)N1CC(Cc2noc(-c3cncc([C@@](O)(c4ccc(C(C)C)cc4)C4(C)CN(C)C4)c3)n2)C1 [Example 523]
178 | CC(C)c1ccc([C@](O)(c2cncc(-c3nc(CC4(O)CCOCC4)no3)c2)C2(C)CN(C)C2)cc1 [Example 524, 4-(5-{5-[(R)-(1,3-Dimethyl-azetidin-3-yl)-hydroxy-(4-isopropyl-phenyl)-methyl]-pyridin-3-yl}-[1,2,4]oxadiazol-3-ylmethyl)-tetrahydro-pyran-4-ol]
187 | CC(C)c1ccc([C@](O)(c2cncc(-c3nc(C4CCN(C(=O)C5COCCO5)CC4)no3)c2)C2(C)CN(C)C2)cc1 (stereo partly drawn) [Example 525, [4-(5-{5-[(R)-(1,3-Dimethyl-azetidin-3-yl)-hydroxy-(4-isopropyl-phenyl)-methyl]-pyridin-3-yl}-[1,2,4]oxadiazol-3-yl)-piperidin-1-yl]-[1,4]dioxan-2-yl-methanone]
171 | COCC(=O)N1CCC(c2noc(-c3cncc([C@@](O)(c4ccc(C(C)C)cc4)C4(C)CN(C)C4)c3)n2)CC1 [Example 526, 1-[4-(5-{5-[(R)-(1,3-Dimethyl-azetidin-3-yl)-hydroxy-(4-isopropyl-phenyl)-methyl]-pyridin-3-yl}-[1,2,4]oxadiazol-3-yl)-piperidin-1-yl]-2-methoxy-ethanone]
74.3 | CC(C)c1ccc([C@](O)(c2cncc(-c3nc(C4CCN(S(C)(=O)=O)CC4)no3)c2)C2(C)CN(C)C2)cc1 [Example 527, (R)-(1,3-Dimethyl-azetidin-3-yl)-(4-isopropyl-phenyl)-{5-[3-(1-methanesulfonyl-piperidin-4-yl)-[1,2,4]oxadiazol-5-yl]-pyridin-3-yl}-methanol]
